For the assay, the system named is BDF1 mice, s.c. Lewis lung carcinoma, T/C %. Description: NCI In Vivo Anticancer Drug Screen. Data for tumor model Lewis Lung Carcinoma (subcutaneous) in B6D2F1 (BDF1) mice. In short, it runs like this: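 Antitumor effect in vivo is scored from survival or tumor burden, reported as treated relative to vehicle controls.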
Setting [1] is: endpoint: mean tumor weight, dose: 150.0 mg/kg/injection, schedule: Q01DX011 (ip), vehicle: carboxymethylcellulose (CMC), higher = larger tumour.
The mark [2] stands for this setting: endpoint: mean tumor weight, dose: 500.0 mg/kg/injection, schedule: Q01DX011 (ip), vehicle: carboxymethylcellulose (CMC), higher = larger tumour.

“And” between values parts separate entries of the source, which are not always exact repeats. Equal values may be shown once. Records with an inconclusive call do not appear.

Consider `O=S(=O)(Cl)c1cc(Cl)c(Cl)cc1Cl`, for which the T/C was 71 % of control (endpoint: mean tumor weight, dose: 133.0 mg/kg/injection, schedule: Q01DX011 (ip), vehicle: other, higher = larger tumour); 83 % of control (endpoint: mean tumor weight, dose: 300.0 mg/kg/injection, schedule: Q01DX011 (ip), vehicle: other, higher = larger tumour); 28 % of control and 41 % of control (endpoint: mean tumor weight, dose: 450.0 mg/kg/injection, schedule: Q01DX011 (ip), vehicle: other, higher = larger tumour); 75 % of control (endpoint: mean tumor weight, dose: 600.0 mg/kg/injection, schedule: Q01DX011 (ip), vehicle: other, higher = larger tumour).
Regarding `C[C@]12CCC(=O)C=C1CC[C@@H]1[C@@H]2C(=O)C[C@@]2(C)[C@H]1CC[C@]2(O)C(=O)CO`, the T/C reads like this: (endpoint: mean tumor weight, dose: 100.0 mg/kg/injection, schedule: Q01DX011 (ip), vehicle: steriod suspending solution, higher = larger tumour) 58 % of control; (endpoint: median survival time, dose: 5.0 mg/kg/injection, schedule: Q02DX009 (ip), vehicle: Klucel (hydroxypropylcellulose) (HPC), higher = longer survival) 102 % of control; (endpoint: median survival time, dose: 10.0 mg/kg/injection, schedule: Q02DX009 (ip), vehicle: Klucel (hydroxypropylcellulose) (HPC), higher = longer survival) 102 % of control; (endpoint: median survival time, dose: 20.0 mg/kg/injection, schedule: Q02DX009 (ip), vehicle: Klucel (hydroxypropylcellulose) (HPC), higher = longer survival) 101 % of control; (endpoint: median survival time, dose: 40.0 mg/kg/injection, schedule: Q02DX009 (ip), vehicle: Klucel (hydroxypropylcellulose) (HPC), higher = longer survival) 97 % of control and 102 % of control.
Take `CC(=O)Nc1ccc2nc3ccc(NC(C)=O)cc3[n+](-c3ccccc3)c2c1`: the T/C runs as follows: (endpoint: mean tumor weight, dose: 12.5 mg/kg/injection, schedule: Q01DX011 (ip), vehicle: saline, higher = larger tumour) 61 % of control; (endpoint: mean tumor weight, dose: 25.0 mg/kg/injection, schedule: Q01DX011 (ip), vehicle: saline, higher = larger tumour) 79 % of control; (endpoint: mean tumor weight, dose: 50.0 mg/kg/injection, schedule: Q01DX011 (ip), vehicle: saline, higher = larger tumour) 59 % of control.
In the case of `C=C1C(=O)O[C@@H]2[C@H]3O[C@]3(C)CCC=C(C)CC[C@@H]12`, the T/C (endpoint: median survival time, dose: 12.5 mg/kg/injection, schedule: Q01DX009 (ip), vehicle: Klucel (hydroxypropylcellulose) (HPC), higher = longer survival) was 110 % of control; the T/C (endpoint: median survival time, dose: 25.0 mg/kg/injection, schedule: Q01DX009 (ip), vehicle: Klucel (hydroxypropylcellulose) (HPC), higher = longer survival) was 97 % of control; the T/C (endpoint: median survival time, dose: 50.0 mg/kg/injection, schedule: Q01DX009 (ip), vehicle: Klucel (hydroxypropylcellulose) (HPC), higher = longer survival) was 93 % of control.
Turning to `OC(CCl)CN1CC[N+]2(CC1)CC[N+]1(CCN(CC(O)CCl)CC1)CC2` (stereo unspecified), the T/C is 107 % of control and 112 % of control (endpoint: median survival time, dose: 40.0 mg/kg/injection, schedule: Q01DX009 (ip), vehicle: saline, higher = longer survival); 114 % of control and 121 % of control (endpoint: median survival time, dose: 80.0 mg/kg/injection, schedule: Q01DX009 (ip), vehicle: saline, higher = longer survival); 120 % of control (endpoint: median survival time, dose: 160.0 mg/kg/injection, schedule: Q01DX009 (ip), vehicle: saline, higher = longer survival); 150 % of control and 157 % of control (endpoint: median survival time, dose: 320.0 mg/kg/injection, schedule: Q01DX009 (ip), vehicle: saline, higher = longer survival).
On to `CCCOP(=S)(N1CC1)N1CC1`, for which the T/C was 112 % of control (endpoint: median survival time, dose: 18.75 mg/kg/injection, schedule: Q01DX009 (ip), vehicle: Klucel (hydroxypropylcellulose) (HPC), higher = longer survival); 95 % of control (endpoint: median survival time, dose: 37.5 mg/kg/injection, schedule: Q01DX009 (ip), vehicle: Klucel (hydroxypropylcellulose) (HPC), higher = longer survival); 94 % of control (endpoint: median survival time, dose: 75.0 mg/kg/injection, schedule: Q01DX009 (ip), vehicle: Klucel (hydroxypropylcellulose) (HPC), higher = longer survival); 116 % of control (endpoint: median survival time, dose: 100.0 mg/kg/injection, schedule: Q01DX009 (ip), vehicle: saline, higher = longer survival).
Consider `CN1c2c(nc(N)[nH]c2=O)NCC1CCNc1ccc(C(=O)NC(CCC(=O)O)C(=O)O)cc1` (stereo unspecified), for which the T/C by setting is: (endpoint: median survival time, dose: 268.0 mg/kg/injection, schedule: Q01DX009 (ip), vehicle: saline, higher = longer survival) 120 % of control; (endpoint: median survival time, dose: 400.0 mg/kg/injection, schedule: Q01DX009 (ip), vehicle: saline, higher = longer survival) 116 % of control; (endpoint: median survival time, dose: 400.0 mg/kg/injection, schedule: Q04DX003 (ip), vehicle: saline, higher = longer survival) 103 % of control; (endpoint: median survival time, dose: 600.0 mg/kg/injection, schedule: Q04DX003 (ip), vehicle: saline, higher = longer survival) 116 % of control; (endpoint: median survival time, dose: 800.0 mg/kg/injection, schedule: Q01DX001 (ip), vehicle: saline, higher = longer survival) 98 % of control; (endpoint: median survival time, dose: 900.0 mg/kg/injection, schedule: Q04DX003 (ip), vehicle: saline, higher = longer survival) 106 % of control. The T/C was 103 % of control (endpoint: median survival time, dose: 1200.0 mg/kg/injection, schedule: Q01DX001 (ip), vehicle: saline, higher = longer survival) and 110 % of control (endpoint: median survival time, dose: 1800.0 mg/kg/injection, schedule: Q01DX001 (ip), vehicle: saline, higher = longer survival).
As to `COC(=O)c1ccccc1NC(c1ccccn1)c1ccc2cccnc2c1O` (stereo unspecified), the T/C runs as follows: (endpoint: mean tumor weight, dose: 10.0 mg/kg/injection, schedule: Q01DX011 (ip), vehicle: carboxymethylcellulose (CMC), higher = larger tumour) 55 % of control; (endpoint: mean tumor weight, dose: 25.0 mg/kg/injection, schedule: Q01DX011 (ip), vehicle: carboxymethylcellulose (CMC), higher = larger tumour) 111 % of control; (endpoint: mean tumor weight, dose: 37.0 mg/kg/injection, schedule: Q01DX011 (ip), vehicle: carboxymethylcellulose (CMC), higher = larger tumour) 115 % of control; (endpoint: mean tumor weight, dose: 50.0 mg/kg/injection, schedule: Q01DX011 (ip), vehicle: carboxymethylcellulose (CMC), higher = larger tumour) 56 % of control; (endpoint: mean tumor weight, dose: 62.0 mg/kg/injection, schedule: Q01DX011 (ip), vehicle: carboxymethylcellulose (CMC), higher = larger tumour) 30 % of control; (endpoint: mean tumor weight, dose: 70.0 mg/kg/injection, schedule: Q01DX011 (ip), vehicle: carboxymethylcellulose (CMC), higher = larger tumour) 78 % of control. Besides, the T/C (endpoint: mean tumor weight, dose: 75.0 mg/kg/injection, schedule: Q01DX011 (ip), vehicle: carboxymethylcellulose (CMC), higher = larger tumour) is 86 % of control; the T/C (endpoint: mean tumor weight, dose: 125.0 mg/kg/injection, schedule: Q01DX011 (ip), vehicle: carboxymethylcellulose (CMC), higher = larger tumour) was 33 % of control; the T/C under setting [1] is 80 % of control; the T/C (endpoint: mean tumor weight, dose: 250.0 mg/kg/injection, schedule: Q01DX011 (ip), vehicle: carboxymethylcellulose (CMC), higher = larger tumour) was 76 % of control; the T/C (endpoint: mean tumor weight, dose: 300.0 mg/kg/injection, schedule: Q01DX011 (ip), vehicle: carboxymethylcellulose (CMC), higher = larger tumour) is 62 % of control; the T/C under setting [2] was 53 % of control.
Consider `Nc1ncnc2c1ncn2C1CCCO1` (stereo unspecified), for which the T/C was 75 % of control (endpoint: mean tumor weight, dose: 50.0 mg/kg/injection, schedule: Q01DX011 (ip), vehicle: other, higher = larger tumour); 56 % of control (endpoint: mean tumor weight, dose: 100.0 mg/kg/injection, schedule: Q01DX011 (ip), vehicle: other, higher = larger tumour); 37 % of control (endpoint: mean tumor weight, dose: 200.0 mg/kg/injection, schedule: Q01DX011 (ip), vehicle: other, higher = larger tumour).
For the compound `Cn1c(O)c(N=NC(N)=S)c2ccccc21`, the T/C is 70 % of control (endpoint: mean tumor weight, dose: 15.0 mg/kg/injection, schedule: Q01DX011 (ip), vehicle: carboxymethylcellulose (CMC), higher = larger tumour); 77 % of control and 82 % of control (endpoint: mean tumor weight, dose: 120.0 mg/kg/injection, schedule: Q01DX011 (ip), vehicle: carboxymethylcellulose (CMC), higher = larger tumour); 57 % of control (endpoint: mean tumor weight, dose: 360.0 mg/kg/injection, schedule: Q01DX011 (ip), vehicle: carboxymethylcellulose (CMC), higher = larger tumour); 52 % of control under setting [2].
Take `SCc1ccccn1`: the T/C (endpoint: mean tumor weight, dose: 37.8 mg/kg/injection, schedule: Q01DX011 (ip), vehicle: carboxymethylcellulose (CMC), higher = larger tumour) was 95 % of control; the T/C (endpoint: mean tumor weight, dose: 75.5 mg/kg/injection, schedule: Q01DX011 (ip), vehicle: carboxymethylcellulose (CMC), higher = larger tumour) was 97 % of control; the T/C under setting [1] was 90 % of control.
`COc1cc(-c2cc(=O)c3c(OC)c(OC)c(OC)c(OC)c3o2)cc(OC)c1OC`: the T/C by setting is: (endpoint: mean tumor weight, dose: 50.0 mg/kg/injection, schedule: Q01DX010 (sc), vehicle: steriod suspending solution, higher = larger tumour) 87 % of control; (endpoint: mean tumor weight, dose: 100.0 mg/kg/injection, schedule: Q01DX010 (sc), vehicle: steriod suspending solution, higher = larger tumour) 102 % of control; (endpoint: mean tumor weight, dose: 200.0 mg/kg/injection, schedule: Q01DX010 (sc), vehicle: steriod suspending solution, higher = larger tumour) 97 % of control.

For the origin of these results see PubChem BioAssay AID270 (DTP/NCI, 2004).
